The values below are quoted from earlier work in article PMC5465828 (Research in Pharmaceutical Sciences, 2017).

As a reminder, the IC50 is the point on the concentration scale where inhibition reaches its midpoint.

The series relates to human colon carcinoma HCT116 cell line. Particulars: read-out: IC50 of doxorubicin in HCT116 cells; doxorubicin alone.

Regarding `COc1cccc2c1C(=O)c1c(O)c3c(c(O)c1C2=O)C[C@@](O)(C(=O)CO)C[C@@H]3O[C@H]1C[C@H](N)[C@H](O)[C@H](C)O1` [doxorubicin], the IC50 was 200 nM.
